Results as given in patent US12616674B2, “Anti-fibrotic NEU3 inhibitor compounds and methods of use” (The Texas A&M University System, priority 2019, dated 2026).

Each compound was assayed against T1, recombinant human sialidase NEU3 (Homo sapiens, UniProt Q9UQ49) (assay: NEU3-catalyzed L-TGF-β1 activation (TGF-β1 release/concentration assay, active TGF-β1 ELISA)). Conditions: recombinant human NEU3, L-TGF-β1, PBS pH 6.9, 2 hours 37° C.; read-out: IC50, inhibits human NEU3 in the TGF-β1 concentration assay.
T1 construct: purchased Origene TP316537
T1 sequence (Q9UQ49 1-428): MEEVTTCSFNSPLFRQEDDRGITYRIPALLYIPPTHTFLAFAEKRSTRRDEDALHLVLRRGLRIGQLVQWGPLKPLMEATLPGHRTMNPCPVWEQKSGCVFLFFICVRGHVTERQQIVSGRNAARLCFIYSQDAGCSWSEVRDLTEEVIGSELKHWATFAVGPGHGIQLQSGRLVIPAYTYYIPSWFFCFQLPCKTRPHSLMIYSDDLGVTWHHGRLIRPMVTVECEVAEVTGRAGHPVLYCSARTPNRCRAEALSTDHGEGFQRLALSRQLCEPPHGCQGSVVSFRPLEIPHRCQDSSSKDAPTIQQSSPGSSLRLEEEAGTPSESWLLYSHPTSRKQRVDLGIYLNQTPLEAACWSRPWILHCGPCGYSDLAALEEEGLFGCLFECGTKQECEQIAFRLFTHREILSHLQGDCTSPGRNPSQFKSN
Assay type: biochemical
Procedure: To determine if NEU3 can cause latent transforming growth factor-β1 (L-TGF-β1) to release active TGF-β1, 200 ng/ml recombinant human L-TGF-β1 (299-LT/CF, R&D Systems) was incubated with varying concentrations of recombinant human NEU3 (TP316537, Origene) in a total volume of 100 μl of PBS pH 6.9 in a 96-well microplate (651261, Greiner Bio-one, Monroe, NC). The microplates were covered with aluminum foil and incubated at 37° C. for 2 hours. Following incubation, the reaction mixtures were assayed using a TGF-β1 ELISA kit (DY240, R&D Systems) following the manufacturer's protocol with the exception that the reaction mixtures were not processed for acid treatment, so as to measure only active TGF-β1 and not total TGF-β1. The absorbance was read with a SynergyMX plate reader (BioTek, Winooski, VT).
To determine the ability of compounds 1-31 to inhibit human recombinant NEU3 in-vitro, compounds were dissolved in 5 ml water to 20 mM in 15 ml tubes (89039-664, VWR, Radnor, PA), with the exception that 4-hydroxypyridine-2-carboxylic acid, nicotinic acid, and 4-aminopicolinic acid were dissolved in 50 μl DMSO to 2 M, and this was then added to 4.95 ml of water to make a 20 mM stock, and O-(tetrahydro-2H-pyran-2yl) hydroxylamine and salicylic acid were dissolved in 50 μl methanol to 2 M, and this was then added to 4.95 ml of water to make a 20 mM stock. All stocks were stored at 4° C. and used within 2 weeks of preparation. A 10-fold dilution series of the compounds starting at 2 mM were made in PBS pH 6.9 in 1.7 ml clear microtubes (22-281, Genesee Scientific). 100 μl of diluted compound was added to the well of a 96 well plate and then 50 μl of 400 ng/ml recombinant human sialidase NEU3 (TP316537, Origene) in PBS pH 6.9 was added to each well (50 μl PBS pH 6.9 for the control), and the plate was incubated for 30 minutes at 37° C. 50 μl of 800 ng/ml L-TGF-β1 (299-LT/CF, R&D Systems) in PBS pH 6.9 was then added to the well. The plate was covered with aluminum foil and incubated for 2 hours at 37° C., and released active TGF-β1 was assayed as described above.

| IC50 [pM] | Structure (SMILES) |
| --- | --- |
| 42000 | CC(=O)c1ccccn1 [Compound 5, 2-acetylpyridine] |
| 14 | COC(=O)c1ccccn1 [Compound 6, methyl picolinate] |
| < 10 | CN1CCC(N)CC1C(=O)O (stereo not drawn) [Compound 26, 2-piperidinecarboxylic acid, 4-amino-1-methyl] |
